# Measurements published in patent EP1316317A1, “Hydrosoluble mixtures of cyproterone and/or an ester of it, processes to obtain them and uses thereof” (University of Liege, priority 2001, dated 2003).
# “And” between values parts separate entries of the source, which are not always exact repeats. Equal values may be shown once.
# Assays:
# [1] = Stability of CPA in alkaline medium (stress conditions), alone or complexed with CDs (HPLC); type: physicochemical; conditions: CD 100 mM
# Experimental: Les complexes sont préparés en ajoutant 2 ml de solution aqueuse de CD à 20 mg de CPA. Les solutions de CD utilisées pour préparer ces complexes sont des solutions de HPβCD, de HPγCD ou de RMβCD à une concentration de 100 mM. Après agitation pendant 24 heures à 25°C, ces solutions sont filtrées sur filtre en PVDF de 0,45 µm (Millipore, Millex HV 0,45 µm).
# Les solutions de référence de CPA sont préparées en ajoutant 2 ml de solution aqueuse à 20 mg de CPA. Après agitation pendant 24 heures à 25°C, ces solutions sont filtrées sur filtre en PVDF de 0,45 µm (Millipore, Millex HV 0,45 µm).
# Chaque essai est répété à 3 reprises et les échantillons sont conservés dans des étuves à température contrôlée à 25°C pendant 1 mois.
# La concentration en CPA contenu dans les solutions de CPA seul ou sous forme de complexe est dosée par HPLC au temps 0 et après 1 mois et le pH des solutions est mesuré après 1 mois.
# (§1) Les conditions chromatographiques sont telles qu'utilisées précédemment.
# Après 1 mois, la libération de substances alcalines provenant des flacons a communiqué un pH alcalin aux solutions. Ce pH a été mesuré et varie entre 8 et 9 dans les différentes solutions. Ce pH alcalin a provoqué la dégradation de l'acétate de cyprotérone, par hydrolyse de la fonction ester.
# [2] = water; background statement, no method given; cited from earlier work
# [3] = Stability of CPA in aqueous solution, alone or as complex with RMβCD (HPLC); type: physicochemical
# Experimental: Les complexes sont formés par ajout de 2 ml de solution aqueuse de RMβCD à 30 mg de CPA. Des solutions de RMβCD à différentes concentrations ont été utilisées: 12,5; 25; 50; 100 et 200 mM. Après agitation pendant 24 heures à 25°C, ces solutions sont filtrées sur filtre en PVDF de 0,45 µm (Millipore, Millex HV 0,45 µm).
# Les solutions de référence de CPA sont préparées en ajoutant 2 ml de solution aqueuse à 30 mg de CPA. Après agitation pendant 24 heures à 25°C, ces solutions sont filtrées sur filtre en PVDF de 0,45 µm (Millipore, Millex HV 0,45 µm).
# (§2) Les échantillons sont conservés dans des conditions ambiantes (20°C) pendant 3 mois.
# La concentration en CPA contenu dans les solutions de CPA seul ou sous forme de complexe est dosée par HPLC au temps 0, après 1 mois et après 3 mois.
# as §1
# [4] = Stability of CPA in aqueous solution, alone or as complex with βCD (HPLC); type: physicochemical
# Experimental: Un complexe est formé par ajout de 2 ml de solution aqueuse de βCD 10 mM à 20 mg de CPA. Après agitation pendant 24 heures à 25°C, ces solutions sont filtrées sur filtre en PVDF de 0,45 µm (Millipore, Millex HV 0,45 µm). La formation du complexe est effectuée sur 8 échantillons différents.
# Les solutions de référence de CPA sont préparées en ajoutant 2 ml de solution aqueuse à 20 mg de CPA. Après agitation pendant 24 heures à 25°C, ces solutions sont filtrées sur filtre en PVDF de 0,45 µm. 8 échantillons sont préparés.
# as §2
# La concentration en CPA contenue dans les solutions de CPA seul ou sous forme de complexe est dosée par HPLC au temps 0, après 1 mois et après 3 mois.
# L'appareillage et les conditions chromatographiques sont ceux tels qu'utilisés dans l'Exemple 3.
# [5] = Adsorption of CPA on cellulose and PVDF filters (recovery after filtration); type: physicochemical; conditions: CPA 2 µg/ml (100 µg/ml diluted 50-fold), CD 10 mM
# Experimental: Les complexes ont été préparés en diluant 50 fois une solution mère de CPA à 100 µg/ml dans un mélange eau/acétonitrile (ACN) 50/50, avec une solution aqueuse de cyclodextrine à 10 mM. Les différentes cyclodextrines utilisées sont la β-CD, la γCD, l'HPβCD, l'HPγCD et la RMβCD. Ces échantillons sont agités au vortex pendant au moins 1 minute. Etant donné la faible proportion de CPA par rapport à la concentration en cyclodextrine et le CPA étant déjà solubilisé dans le milieu, il n'est pas nécessaire d'agiter 24 heures à 25°C pour obtenir le complexe, ce dernier étant formé très rapidement.
# Une solution de référence contenant seulement du CPA est préparée en diluant 50 fois la solution mère de CPA à 100 µg/ml dans un mélange eau/acétonitrile 50/50, avec de l'eau purifiée.
# Chaque essai est répété à trois reprises. Ces échantillons sont ensuite filtrés en partie sur filtre en ester de cellulose et en partie sur filtre en PVDF. Les échantillons sont dosés avant et après filtration de façon à pouvoir calculer le pourcentage de récupération après filtration.
# [6] = Phase-solubility diagram of CPA in aqueous cyclodextrin solutions (excess CPA, HPLC assay of filtrate); type: physicochemical; conditions: for Concentration en CPA (Solubilité du CPA en présence de HPβCD) / Concentration en CPA (Solubilité du CPA en présence de HPγCD) / Concentration en CPA (Solubilité du CPA en présence de RMβCD) / Concentration en CPA (Solubilité du CPA en présence de SBEβCD) / Concentration en CPA (Solubilité du CPA en présence de βCD) / Concentration en CPA (Solubilité du CPA en présence de γCD): 24 h at 25°C
# Experimental: Les diagrammes de solubilité sont effectués en ajoutant un excès de CPA à des solutions de CD de concentration croissante. Après 24 heures d'agitation dans des bains thermostatisés à 25°C, ces solutions sont filtrées et la quantité de CPA solubilisée est dosée par HPLC.
# Pesée de minimum 30 mg de CPA et ajout de 2 ml de solution de CD. Pour chaque concentration de CD, les essais sont répétés au moins deux fois. Des essais sont également effectués avec une solution aqueuse sans CD.
# Les échantillons sont mis en agitation dans des bains thermostatisés à 25°C pendant 24 heures. Ensuite, ces échantillons sont filtrés sur filtre en polyvinyldifluoridène (PVDF) de 0,45 µm (Millipore, Millex HV 0,45 µm) et la concentration de CPA dans les filtrats est dosée par HPLC.
# • Echantillonneur automatique Merck L-7200, Détecteur UV Merck L-7400, Pompe Merck L-7100 et intégrateur Merck D-2500.
# • Colonne : Lichrospher RP18 (5 µm) 125 mm • Phase mobile : ACN/H2O 50/50 • Débit : 1,5 ml/min • Température : 25°C • Longueur d'onde : 282 nm • Etalon interne : propylparaben.
# [7] = CPA concentration at time 0, 1440 min
substance,measurement,setting,value
acétate de cyprotérone [CPA],Conc. t1 mois,"[1]; CPA concentration after 1 month at 25°C, alkaline pH 8 to 9","0,4 µg/ml"
same,Conc. t0,[1]; [7],"2,3 µg/ml"
same,Pourcentage CPA après 1 mois,"[1]; after 1 month at 25°C, alkaline pH 8 to 9, 43800 min","17,6%"
same,solubilité de l'acétate de cyprotérone dans l'eau,[2],~2 µg/mL
same,Conc. t1,[3]; CPA concentration after 1 month at ambient conditions (20°C),"2,2 µg/ml"
same,Conc. t0,[3]; [7],"2,7 µg/ml"
same,Pourcentage t1 mois,"[3]; CPA remaining after 1 month at 20°C, 43800 min","83,7%"
same,Pourcentage t3 mois,"[3]; CPA remaining after 3 months at 20°C, 131400 min","77,1%"
same,"CPA retrouvé après 1 mois, Conc.",[4]; after 1 month at ambient conditions (20°C),"2,2 µg/ml"
same,"CPA retrouvé après 1 mois, Pourcentage moyen CPA","[4]; after 1 month at ambient conditions (20°C), relative to time 0, 43800 min","84,6%"
same,"CPA retrouvé après 3 mois, Conc.",[4]; after 3 months at ambient conditions (20°C),"2,1 µg/ml"
same,"CPA retrouvé après 3 mois, Pourcentage moyen CPA","[4]; after 3 months at ambient conditions (20°C), relative to time 0, 131400 min","79,3%"
same,"CPA au temps 0, Conc.","[4]; time 0, βCD 10 mM for the complex, n=8, 1440 min","2,6 µg/ml"
same,"Pourcentage de CPA récupéré après filtration sur PVDF, Moyenne",[5]; PVDF filter,"88,7%"
same,"Pourcentage de CPA récupéré après filtration sur acétate de cellulose, Moyenne",[5]; cellulose filter,"2,9%"
same,Concentration en CPA (Solubilité du CPA en présence de HPβCD),[6]; HPβCD 25 mM,"308,0 µg/ml"
same,Concentration en CPA (Solubilité du CPA en présence de HPβCD),[6]; HPβCD 50 mM,"629,9 µg/ml"
same,Concentration en CPA (Solubilité du CPA en présence de HPβCD),[6]; HPβCD 100 mM,"1188,6 µg/ml"
same,Concentration en CPA (Solubilité du CPA en présence de HPβCD),[6]; HPβCD 200 mM,"2648,2 µg/ml"
same,Concentration en CPA (Solubilité du CPA en présence de HPβCD),"[6]; HPβCD 12,5 mM","147,1 µg/ml"
same,Concentration en CPA (Solubilité du CPA en présence de HPγCD),[6]; HPγCD 25 mM,"282,5 µg/ml"
same,Concentration en CPA (Solubilité du CPA en présence de HPγCD),[6]; HPγCD 50 mM,"578,9 µg/ml"
same,Concentration en CPA (Solubilité du CPA en présence de HPγCD),[6]; HPγCD 100 mM,"1512,0 µg/ml"
same,Concentration en CPA (Solubilité du CPA en présence de HPγCD),[6]; HPγCD 200 mM,"4291,1 µg/ml"
same,Concentration en CPA (Solubilité du CPA en présence de HPγCD),"[6]; HPγCD 12,5 mM","118,7 µg/ml"
same,Concentration en CPA (Solubilité du CPA en présence de RMβCD),[6]; RMβCD 25 mM,"430,9 µg/ml"
same,Concentration en CPA (Solubilité du CPA en présence de RMβCD),[6]; RMβCD 50 mM,"1169,9 µg/ml"
same,Concentration en CPA (Solubilité du CPA en présence de RMβCD),[6]; RMβCD 100 mM,"3222,1 µg/ml"
same,Concentration en CPA (Solubilité du CPA en présence de RMβCD),[6]; RMβCD 200 mM,"9598,7 µg/ml"
same,Concentration en CPA (Solubilité du CPA en présence de RMβCD),"[6]; RMβCD 12,5 mM","176,9 µg/ml"
same,Concentration en CPA (Solubilité du CPA en présence de SBEβCD),[6]; SBEβCD 25 mM,"461,8 µg/ml"
same,Concentration en CPA (Solubilité du CPA en présence de SBEβCD),[6]; SBEβCD 50 mM,"860,9 µg/ml"
same,Concentration en CPA (Solubilité du CPA en présence de SBEβCD),[6]; SBEβCD 100 mM,"1475,2 µg/ml"
same,Concentration en CPA (Solubilité du CPA en présence de SBEβCD),[6]; SBEβCD 200 mM,"2034,1 µg/ml"
same,Concentration en CPA (Solubilité du CPA en présence de SBEβCD),"[6]; SBEβCD 12,5 mM","243,9 µg/ml"
same,solubilité du CPA sans cyclodextrine,"[6]; water without cyclodextrin, 24 h agitation at 25°C, 1440 min","< 3 µg/ml and 2,6 µg/ml"
same,Concentration en CPA (Solubilité du CPA en présence de βCD),[6]; βCD 5 mM,"28,8 µg/ml"
same,Concentration en CPA (Solubilité du CPA en présence de βCD),[6]; βCD 10 mM,"56,7 µg/ml"
same,Concentration en CPA (Solubilité du CPA en présence de βCD),[6]; βCD 15 mM,"86,5 µg/ml"
same,Concentration en CPA (Solubilité du CPA en présence de γCD),[6]; γCD 25 mM,"436,6 µg/ml"
same,Concentration en CPA (Solubilité du CPA en présence de γCD),[6]; γCD 50 mM,"1041,0 µg/ml"
same,Concentration en CPA (Solubilité du CPA en présence de γCD),[6]; γCD 100 mM,"2368,9 µg/ml"
same,Concentration en CPA (Solubilité du CPA en présence de γCD),[6]; γCD 200 mM (so in the source),"2266,8 µg/ml"
same,Concentration en CPA (Solubilité du CPA en présence de γCD),"[6]; γCD 12,5 mM","195,2 µg/ml"
